Tests used:
Format in all cases: cell-based
DU-145 = assay: Inhibition of cell growth by colorimetric SRB assay, DU-145; details: Homo sapiens, DU-145, 48 hours exposure; for CC50: cell killing, read-out: LC50 (the source's name); for IC (total growth inhibition): read-out: TGI
Description: (§1) The finality of these assays is to interrupt the growth of a “in vitro” tumor cell culture by means a continued exhibition of the cells to the sample to be testing.
(§2) Inhibition of Cell Growth by Colorimetric Assay.
(§3) A colorimetric type of assay, using sulforhodamine B (SRB) reaction has been adapted for a quantitative measurement of cell growth and viability (following the technique described by P. A. Skehan, et al., J. Natl. CancerInst. 1990, 82, 1107-1112).
(§4) This form of assay employs 96 well cell culture microplates of 9 mm diameter (T. Mosmann et al., J. of Immuological Methods 1983, 65, 55-63; G. T. Faircloth et al., J. of Tissue and Culture Methods 1988, 11, 201-205). Most of the cell lines are obtained from American Type Culture Collection (ATCC) derived from different human cancer types.
(§5) Cells are maintained in RPMI 1640 10% FBS, supplemented with 0.1 g/L penicillin and 0.1 g/L streptomycin sulfate and then incubated at 37° C., 5% CO2 and 98% humidity. For the experiments, cells were harvested from subconfluent cultures using trypsin and resuspended in fresh medium before plating.
(§6) Cells are seeded in 96 well microtiter plates, at 5×10^3 cells per well in aliquots of 195 μL medium, and they are allowed to attach to the plate surface by growing in drug free medium for 18 hours. Afterward, samples are added in aliquots of 5 μL in a ranging from 10 to 10^−8 μg/mL, dissolved in DMSO/EtOH/PBS (0.5:0.5:99). After 48 hours exposure, the antitumor effect are measured by the SRB methodology: cells are fixed by adding 50 μL of cold 50% (wt/vol) trichloroacetic acid (TCA) and incubated for 60 minutes at 4° C. Plates are washed with deionizer water and dried. One hundred μl of SRB solution (0.4% wt/vol in 1% acetic acid) is added to each microliter well and incubated for 10 minutes at room temperature. Unbound SRB is removed by washing with 1% acetic acid. Plates are air dried and bound stain is solubilized with Tris buffer. Optical densities are read on a automated spectrophotometric plate reader at a single wavelength of 490 nm.
(§7) The values for mean +/−SD of data from triplicate wells are calculated. Some parameters for cellular responses can be calculated: GI=growth inhibition, TGI=total growth inhibition (cytostatic effect) and LC=cell killing (cytotoxic effect).

LNCaP = assay: Inhibition of cell growth by colorimetric SRB assay, LN-caP; details: Homo sapiens, LN-caP, 48 hours exposure; for CC50: cell killing, read-out: LC50 (the source's name); for IC (total growth inhibition): read-out: TGI
Description: as §1, §2, §3, §4, §5, §6, §7

IGROV = assay: Inhibition of cell growth by colorimetric SRB assay, IGROV; details: Homo sapiens, 48 hours exposure; for CC50: cell killing, read-out: LC50 (the source's name); for IC (total growth inhibition): read-out: TGI
Description: as §1, §2, §3, §4, §5, §6, §7

IGROV-ET = assay: Inhibition of cell growth by colorimetric SRB assay, IGROV-ET; details: Homo sapiens, IGROV-ET, 48 hours exposure; for CC50: cell killing, read-out: LC50 (the source's name); for IC (total growth inhibition): read-out: TGI
Description: as §1, §2, §3, §4, §5, §6, §7

SK-BR-3 = assay: Inhibition of cell growth by colorimetric SRB assay, SK-BR-3; details: SK-BR-3, 48 hours exposure
Description: as §1, §2, §3, §4, §5, §6, §7

SK-MEL-28 = assay: Inhibition of cell growth by colorimetric SRB assay, MEL-28; details: Homo sapiens, SK-MEL-28, MEL-28, 48 hours exposure; for CC50: cell killing, read-out: LC50 (the source's name); for IC (total growth inhibition): read-out: TGI
Description: as §1, §2, §3, §4, §5, §6, §7

A-549 = assay: Inhibition of cell growth by colorimetric SRB assay, A-549; details: Homo sapiens, A549, A-549, 48 hours exposure; for CC50: cell killing, read-out: LC50 (the source's name); for IC (total growth inhibition): read-out: TGI
Description: as §1, §2, §3, §4, §5, §6, §7

K-562 = assay: Inhibition of cell growth by colorimetric SRB assay, K-562; details: Homo sapiens, K562, K-562, 48 hours exposure; for CC50: cell killing, read-out: LC50 (the source's name); for IC (total growth inhibition): read-out: TGI
Description: as §1, §2, §3, §4, §5, §6, §7

PANC-1 = assay: Inhibition of cell growth by colorimetric SRB assay, PANC-1; details: Homo sapiens, PANC-1, 48 hours exposure; for CC50: cell killing, read-out: LC50 (the source's name); for IC (total growth inhibition): read-out: TGI
Description: as §1, §2, §3, §4, §5, §6, §7

HT-29 = assay: Inhibition of cell growth by colorimetric SRB assay, HT-29; details: Homo sapiens, HT-29, 48 hours exposure; for CC50: cell killing, read-out: LC50 (the source's name); for IC (total growth inhibition): read-out: TGI
Description: as §1, §2, §3, §4, §5, §6, §7

LoVo = assay: Inhibition of cell growth by colorimetric SRB assay, LOVO; details: Homo sapiens, LOVO, 48 hours exposure; for LC50: cell killing, read-out: LC50; for IC (total growth inhibition): read-out: TGI
Description: as §1, §2, §3, §4, §5, §6, §7

LoVo-Dox = assay: Inhibition of cell growth by colorimetric SRB assay, LOVO-DOX; details: Homo sapiens, LOVO-DOX, 48 hours exposure; for LC50 (concentration for 50% cell killing): read-out: LC50; for IC (total growth inhibition): read-out: TGI
Description: as §1, §2, §3, §4, §5, §6, §7

HeLa = assay: Inhibition of cell growth by colorimetric SRB assay, HELA; details: Homo sapiens, HELA, 48 hours exposure; for CC50: cell killing, read-out: LC50 (the source's name); for IC (total growth inhibition): read-out: TGI
Description: as §1, §2, §3, §4, §5, §6, §7

HeLa-APL = assay: Inhibition of cell growth by colorimetric SRB assay, HELA-APL; details: Homo sapiens; for CC50: HELA-APL, 48 hours exposure, cell killing, read-out: LC50 (the source's name)
Description: as §1, §2, §3, §4, §5, §6, §7

Structure (SMILES) | GI50 (DU-145) [µM] | CC50 (DU-145) [µM] | IC (total growth inhibition) (DU-145) [µM] | GI50 (LNCaP) [µM] | CC50 (LNCaP) [µM] | IC (total growth inhibition) (LNCaP) [µM] | GI50 (IGROV) [µM] | CC50 (IGROV) [µM] | IC (total growth inhibition) (IGROV) [µM] | GI50 (IGROV-ET) [µM] | CC50 (IGROV-ET) [µM] | IC (total growth inhibition) (IGROV-ET) [µM] | GI50 (SK-MEL-28) [µM] | CC50 (SK-MEL-28) [µM] | IC (total growth inhibition) (SK-MEL-28) [µM] | GI50 (A-549) [µM] | CC50 (A-549) [µM] | IC (total growth inhibition) (A-549) [µM] | GI50 (K-562) [µM] | CC50 (K-562) [µM] | other results
C/C=C\[C@H](C)[C@H]1OC1(C)[C@@H](O[Si](C)(C)C(C)(C)C)[C@@H](CO)C(=O)[C@H](CO)[C@H](O)CC(=O)CC (stereo partly shown) [20b + 20d] | 20.5 | 20.5 | 20.5 | 12.4 | 20.5 | 20.5 | 20.5 | 20.5 | 20.5 | 20.5 | 20.5 | 20.5 | 20.5 | 20.5 | 20.5 | 20.5 | 20.5 | 20.5 | 10.3 | 20.5 | GI50 (SK-BR-3; Homo sapiens): 14.9 µM; CC50 (SK-BR-3; Homo sapiens, cell killing, read-out: LC50 (the source's name)): 20.5 µM; TGI (SK-BR-3; total growth inhibition): 2.05E−05 Molar; IC (total growth inhibition) (K-562): 20.5 µM; GI50 (PANC-1): 9.37 µM; CC50 (PANC-1): 20.5 µM; IC (total growth inhibition) (PANC-1): 20.5 µM; GI50 (HT-29): 20.5 µM; CC50 (HT-29): 20.5 µM; IC (total growth inhibition) (HT-29): 20.5 µM; GI50 (LoVo): 20.5 µM; LC50 (LoVo): 20.5 µM; IC (total growth inhibition) (LoVo): 20.5 µM; GI50 (LoVo-Dox): 20.5 µM; LC50 (concentration for 50% cell killing) (LoVo-Dox): 20.5 µM; IC (total growth inhibition) (LoVo-Dox): 20.5 µM; GI50 (HeLa): 20.5 µM; CC50 (HeLa): 20.5 µM; IC (total growth inhibition) (HeLa): 20.5 µM; CC50 (HeLa-APL): 20.5 µM
C/C=C\[C@H](C)[C@H]1OC1(C)[C@@H](O[Si](C)(C)C(C)(C)C)[C@@H](COC(C)=O)C(=O)[C@H](COC(C)=O)[C@H](O)CC(=O)CC (stereo partly shown) [Compound 44] | 4.99 | 17.5 | 10.4 | 3.77 | 16.6 | 7.88 | 4.13 | 14.2 | 7.67 | 4.15 | 15.8 | 8.09 | 3.84 | 12.6 | 6.96 | 4.01 | 15.4 | 7.87 | 6.1 | 17.5 | IC (total growth inhibition) (K-562): 11.4 µM; GI50 (PANC-1): 3.73 µM; CC50 (PANC-1): 13.8 µM; IC (total growth inhibition) (PANC-1): 7.2 µM; GI50 (HT-29): 6.22 µM; CC50 (HT-29): 17 µM; IC (total growth inhibition) (HT-29): 17.5 µM; GI50 (LoVo): 4.05 µM; LC50 (LoVo): 17.5 µM; IC (total growth inhibition) (LoVo): 8.99 µM; GI50 (LoVo-Dox): 4.27 µM; LC50 (concentration for 50% cell killing) (LoVo-Dox): 17.5 µM; IC (total growth inhibition) (LoVo-Dox): 8.9 µM; GI50 (HeLa): 3.91 µM; CC50 (HeLa): 14.7 µM; IC (total growth inhibition) (HeLa): 7.59 µM; GI50 (HeLa-APL; 48 h): 3.77 µM; IC (total growth inhibition) (HeLa-APL; 48 h, read-out: TGI): 9.83 µM; CC50 (HeLa-APL): 17.5 µM
